From patent US9364453B2, “Method of treating postural reflex abnormality caused by parkinson's disease” (Lundbeck NA Ltd., priority 2011, dated 2016)

Assays:
[1] = biological target: T1, aromatic amino acid decarboxylase (AADC) (Homo sapiens, UniProt P20711); details: as compared to L-DOPA; cited from earlier work
T1 sequence (P20711 1-480): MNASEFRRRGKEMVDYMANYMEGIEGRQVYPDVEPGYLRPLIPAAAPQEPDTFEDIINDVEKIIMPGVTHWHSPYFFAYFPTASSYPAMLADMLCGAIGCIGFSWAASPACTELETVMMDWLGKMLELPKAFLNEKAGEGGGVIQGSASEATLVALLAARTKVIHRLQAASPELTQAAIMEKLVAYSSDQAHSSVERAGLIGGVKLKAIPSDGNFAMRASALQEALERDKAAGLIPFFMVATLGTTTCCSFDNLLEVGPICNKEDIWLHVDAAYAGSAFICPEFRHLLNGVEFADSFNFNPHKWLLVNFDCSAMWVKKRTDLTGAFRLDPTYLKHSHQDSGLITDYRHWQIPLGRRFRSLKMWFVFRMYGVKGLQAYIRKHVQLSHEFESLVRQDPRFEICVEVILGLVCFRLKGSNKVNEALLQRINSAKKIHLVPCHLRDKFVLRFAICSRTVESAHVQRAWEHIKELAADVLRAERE

[2] = tested on: patients with PA disease; details: cited from earlier work
[3] = tested on: PA disease patient with pure akinesia and chief complaint of freezing of gait, not responsive to L-DOPA preparation; assay: Example 3: treatment of a PA disease patient with pure akinesia and freezing of gait, not responsive to L-DOPA preparation; format: in vivo, human; details: person, DOPS 600 mg/day in 3 portions
Excerpt: A combined use of DOPS and a COMT inhibitor was effective for the “freezing of gait symptom” for which L-DOPA preparation is not effective.

[4] = tested on: PA disease patient with pure akinesia and chief complaint of freezing of gait; assay: Example 2: treatment of a PA disease patient with pure akinesia and chief complaint of freezing of gait; format: in vivo, human; details: person; DOPS 300 mg/day in 3 portions
Description: Treatment effect of therapeutic agent of the present invention for PA disease patient with pure akinesia and chief complaint of freezing of gait A PA disease patient with pure akinesia and chief complaint of freezing of gait: person. a) DOPS (300 mg/day) was administered in 3 portions, but ineffective. b) DOPS (300 mg/day) and Comtan® (300 mg/day) as a COMT inhibitor were simultaneously administered in 3 portions each. […] Combined use of DOPS and Comtan® (COMT inhibitor) was effective even in a treatment without using an L-DOPA preparation and a dopamine receptor stimulator.

[5] = as compared to L-DOPA; cited from earlier work

## N[C@H](C(=O)O)[C@H](O)c1ccc(O)c(O)c1 [DOPS, L-threo-3,4-dihydroxy-phenylserine]
[1]
  decarboxylation reaction rate: low
[2]; double-blind comparison, DOPS in optically active form
  clinical trial results versus placebo: significantly superior to that of placebo
[2]; in vivo
  efficacy rate: not necessarily high
[3]
  effect on freezing of gait: slight improvement effect
[4]
  effect on freezing of gait: ineffective
[5]
  transferability into the brain: low
